Measured values as given in patent US20220009914A1, “Analogs of Nitrofuran Antibiotics to Combat Resistance” (The Trustees of Indiana University, priority 2020, published 2022).
Like-named read-outs stand apart in the source and are kept apart here.

Key:
E. coli GroEL/ES = molecular target: T1, E. coli GroEL/ES (Escherichia coli, UniProt P0A6F5); test: GroEL/ES-mediated dMDH refolding assay; type: biochemical
T1 construct: made in house; host or cells: GroEL in NEB 5-alpha E. coli; GroES in E. coli BL21 (DE3)
Method: Evaluating compounds for inhibition in the GroEL/ES-mediated dMDH refolding assay. All compounds were evaluated for inhibiting E. coli GroEL/ES-mediated refolding of the denatured MDH reporter enzyme. Reagent preparation: For these assays, four primary reagent stocks were prepared: 1) GroEL/ES-dMDH binary complex stock; 2) ATP initiation stock; 3) EDTA quench stock; 4) MDH enzymatic assay stock. Denatured MDH (dMDH) was prepared by 2-fold dilution of MDH (5 mg/ml, soluble pig heart MDH from Roche, product #10127248001) with denaturant buffer (7 M guanidine-HCl, 200 mM Tris, pH 7.4, and 50 mM DTT). MDH was completely denatured by incubating at room temperature for >45 min. The binary complex solutions were prepared by slowly adding the dMDH stock to a stirring stock with GroEL and GroES in folding buffer (50 mM Tris-HCl, pH 7.4, 50 mM KCl, 10 mM MgC2, and 1 mM DTT). […] For the ATP initiation stock, ATP solid was diluted into folding buffer to a final concentration of 2.5 mM. Quench solution contained 600 mM EDTA (pH 8.0). The MDH enzymatic assay stock consisted of 20 mM sodium mesoxalate and 1.6 mM NADH in reaction buffer (50 mM Tris-HCl, pH 7.4, 50 mM KCl, and 1 mM DTT).
Assay Protocol: First, 30 μL aliquots of the GroEL/ES-dMDH binary complex stocks were dispensed into clear, 384-well polystyrene plates. […] The chaperonin-mediated refolding cycles were initiated by addition of 20 μL of ATP stock (reagent concentrations during refolding cycle: 50 nM GroEL, 60 nM GroES, 12 nM dMDH, 1 mM ATP, and compounds of 100 μM to 46 nM, 3-fold dilution series) and the refolding reactions were incubated at 37° C. […] Next, the assay was quenched by addition of 10 μL of the EDTA stock to give a final concentration of 100 mM in the wells. […] A340 nm measurements were recorded at 0.5 minutes (start point) and at successive time points until the amount of NADH consumed reached ˜90% (end point, generally between 20-35 minutes).
Evaluating analogs for inhibiting GroEL/ES-mediated substrate refolding functions. […] We first evaluated all test compounds in our standard GroEL/ES-mediated refolding assays that employ either malate dehydrogenase (MDH) or rhodanese (Rho) as the denatured substrate reporter enzymes. When denatured, these enzymes are efficiently folded by GroEL/ES in the absence of inhibitors, and thus act as reporters to determine the degree of inhibition against the bacterial chaperonin system. Inhibition was examined in the presence of these two orthogonal substrates in order to support that GroEL/ES inhibitors were on-target. To further support on-target effects against GroEL/ES, we counter-screened for inhibition of the native MDH and Rho enzymatic reporter reactions, where test compounds were added after the denatured MDH and Rho substrate enzymes were completely refolded by GroEL/ES.

[1] = system: Acinetobacter baumannii strain 2208 (ATCC 19606); test: bacterial proliferation assay, A. baumannii; type: cell-based; details: ATCC19606, read-out: Bacterial Proliferation EC50 A. baumannii
Method: All compounds were evaluated for inhibiting the proliferation of E. coli and each of the ESKAPE bacteria. Results presented represent the averages of EC50 values obtained from at least four replicates. Evaluating compounds for inhibition of bacterial cell proliferation.
Growth Media: E. coli were grown with LB medium and all ESKAPE bacteria were grown in Brain Heart Infusion (BHI) medium (Becton, Dickinson and Company), with all liquid cultures supplemented with 25 mg/L Ca^2+ and 12.5 mg/L Mg^2+ to mimic physiological free concentrations of these cations. A 10 mg/mL Ca^2+ stock solution was prepared by dissolving 1.84 g of CaCl2.2H2O in 50 mL of deionized water, and a 10 mg/mL Mg^2+ stock solution was prepared by dissolving 4.18 g of MgCl2.6H2O in 50 mL deionized water—filter sterilized using 0.2 μm cellulose-acetate filters. 2.5 mL of the sterile 10 mg/mL Ca^2+ stock and 1.25 mL of the sterile 10 mg/mL Mg^2+ stock solutions were added per 1 L of autoclaved LB or BHI media to obtain 25 mg/L Ca^2+ and 12.5 mg/L Mg^2+ ions, respectively.
General Assay Protocol: Stock bacterial cultures were streaked onto LB or BHI agar plates and grown overnight at 37° C. Fresh aliquots of cation supplemented media were inoculated with single bacterial colonies and the cultures were grown overnight at 37° C. with shaking (240 rpm). The following morning, cultures were diluted 10-fold into fresh media and grown at 37° C. until bacteria had reached mid-log phase growth (OD600˜0.4-0.6). The cultures were then diluted into fresh media to achieve final OD600 readings of 0.017. Aliquots of these diluted cultures (30 μL) were added to clear, flat-bottom 384-well polystyrene plates that were previously stamped with 0.5 μL of test compounds in 20 μL of media (yielding initial OD600=0.01 bacterial cultures). All compounds were tested in dose-response with concentration ranges during the proliferation assays from 100 μM to 46 nM (3-fold dilution series). A second set of baseline control plates were prepared analogously, but without any bacteria added, to correct for possible compound absorbance and/or precipitation. […] Plates were then read at 600 nm using a Molecular Devices SpectraMax Plus384 microplate reader. […] Results presented represent the averages of EC50 values obtained from at least four replicates.
Evaluating analogs for inhibiting the growth of E. coli and the ESKAPE bacteria. Analogs were initially tested for antibacterial efficacy against representative strains of antibiotic-sensitive E. coli and the ESKAPE bacteria. To determine compound efficacy, bacterial proliferation assays were carried out in liquid media culture supplemented with physiological concentrations of free calcium and magnesium cations. For these assays, bacterial cultures (OD600=0.01) were exposed to test compounds in 8-point, 3-fold dilution series (100 μM to 46 nM concentration range), in 384-well plates. After addition of compounds to cultures, the plates were sealed with Breathe-Easy gas permeable membranes and allowed to grow to mid-log phase (OD600˜0.4-0.6), whereupon final OD600 readings were taken to assess for bacterial growth and inhibition.

[2] = without NfsB nitroreductase, read-out: GroEL/ES-dMDH Refolding IC50

T1 sequence (P0A6F5 2-548): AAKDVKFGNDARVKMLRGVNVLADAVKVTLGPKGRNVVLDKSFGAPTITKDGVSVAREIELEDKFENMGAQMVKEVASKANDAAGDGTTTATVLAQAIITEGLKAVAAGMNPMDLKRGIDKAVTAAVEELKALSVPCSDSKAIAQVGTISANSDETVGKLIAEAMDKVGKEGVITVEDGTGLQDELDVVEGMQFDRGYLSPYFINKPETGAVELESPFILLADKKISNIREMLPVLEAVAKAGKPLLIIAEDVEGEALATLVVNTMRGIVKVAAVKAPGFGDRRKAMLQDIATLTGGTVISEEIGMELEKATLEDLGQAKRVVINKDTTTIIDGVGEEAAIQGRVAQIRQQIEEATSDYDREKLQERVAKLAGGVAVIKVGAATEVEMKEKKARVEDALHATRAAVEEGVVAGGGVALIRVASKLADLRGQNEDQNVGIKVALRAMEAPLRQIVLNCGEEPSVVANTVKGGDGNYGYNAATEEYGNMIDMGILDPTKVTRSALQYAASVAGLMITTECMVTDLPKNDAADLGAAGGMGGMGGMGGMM

Structure (SMILES) | IC50 (E. coli GroEL/ES) [µM] | EC50 [1] [µM] | IC50 (E. coli GroEL/ES; [2]) [µM]
COc1ccc(C(=O)N/N=C/c2ccc(O)c3ccccc23)cc1 [Compound 29, N′-((4-hydroxynaphthalen-1-yl)methylene)-4-methoxybenzohydrazide] | > 100 | > 100 | 
COc1ccc(C(=O)N/N=C/c2ccco2)cc1 [Compound 39, N′-(furan-2-ylmethylene)-4-methoxybenzohydrazide] | > 100 | > 100 | 
O=C1CN(/N=C/c2ccc(O)c3ncccc23)C(=O)N1 [Compound 2, 1-(((8-hydroxyquinolin-5-yl)methylene)amino)imidazolidine-2,4-dione] | > 100 | > 100 | 
O=C(N/N=C/c1ccc([N+](=O)[O-])o1)c1cccc(Oc2ccccc2)c1 [Compound 24, N′-((5-nitrofuran-2-yl)methylene)-3-phenoxybenzohydrazide] | 71 | > 100 | 
O=C(N/N=C/c1ccc(O)c2ncccc12)c1cccc(Oc2ccccc2)c1 [Compound 11, N′-((8-hydroxyquinolin-5-yl)methylene)-3-phenoxybenzohydrazide] | 13 | > 100 | 
O=C(N/N=C/c1ccc(O)c2ccccc12)c1ccccc1 [Compound 30, N′-((4-hydroxynaphthalen-1-yl)methylene)benzohydrazide] | > 100 | > 100 | 
O=C(N/N=C/c1ccc(O)c2ncccc12)c1ccc(Cl)s1 [Compound 4, 5-chloro-N′-((8-hydroxyquinolin-5-yl)methylene)thiophene-2-carbohydrazide] | 9.6 | > 100 | 
O=C(N/N=C/c1ccc(O)c2ncccc12)c1ccc(NS(=O)(=O)c2ccc(Br)cc2)cc1 [Compound 14, 4-bromo-N-(4-(2-((8-hydroxyquinolin-5-yl)methylene)hydrazine-1-carbonyl)phenyl)benzenesulfonamide] | 14 | 84 | 
O=C(N/N=C/c1ccccc1)c1ccccc1 [Compound 38, N′-benzylidenebenzohydrazide] | > 100 | > 100 | 
O=C(N/N=C/c1cccc2ncccc12)c1ccccc1 [Compound 32, N′-(quinolin-5-ylmethylene)benzohydrazide] | > 100 | > 100 | 
COc1ccc(C(=O)N/N=C/c2ccc(O)cc2)cc1 [Compound 35, N′-(4-hydroxybenzylidene)-4-methoxybenzohydrazide] | > 100 | > 100 | 
O=C(N/N=C/c1ccc([N+](=O)[O-])o1)c1cccc2ccccc12 [Compound 22, N′-((5-nitrofuran-2-yl)methylene)-1-naphthohydrazide] | 82 | > 100 | 
O=C(N/N=C/c1ccc(O)c2ncccc12)c1ccncc1 [Compound 6, N′-((8-hydroxyquinolin-5-yl)methylene)isonicotinohydrazide] | > 100 | > 100 | 
O=C(N/N=C/c1ccc([N+](=O)[O-])o1)c1ccc(Cl)s1 [Compound 17, 5-chloro-N′-((5-nitrofuran-2-yl)methylene)thiophene-2-carbohydrazide] |  | 72 | 88
CCOc1ccc(S(=O)(=O)Nc2ccc(C(=O)N/N=C/c3ccc([N+](=O)[O-])o3)cc2)cc1 [Compound 28, 4-ethoxy-N-(4-(2-((5-nitrofuran-2-yl)methylene)hydrazine-1-carbonyl)phenyl)benzenesulfonamide] | 36 | > 100 | 
O=C(N/N=C/c1ccc([N+](=O)[O-])o1)c1ccc(NS(=O)(=O)c2ccc(Br)cc2)cc1 [Compound 27, 4-bromo-N-(4-(2-((5-nitrofuran-2-yl)methylene)hydrazine-1-carbonyl)phenyl)benzenesulfonamide] | 36 | > 100 | 
O=Cc1ccc(O)c2ncccc12 [Compound 40, reference compound] |  | 11 | > 100
COc1ccc(C(=O)N/N=C/c2cccc3ccccc23)cc1 [Compound 33, 4-methoxy-N′-(naphthalen-1-ylmethylene)benzohydrazide] | > 100 | > 100 | 
